Reference: patent publication US9878984B2, “Anti-cancer compounds” (NORTHWESTERN UNIVERSITY, priority 2008, dated 2018)
“Also recorded” adds a separate entry of the source.

How the values were obtained:
Type in all cases: cell-based, human
HeLa cells [1] = assay: MTS growth inhibition assay, HeLa cells; conditions: concentration used in topo II assay
Protocol: Cell Culture: HeLa (cervical carcinoma), WI-38 (normal human […] fibroblasts), and MDA-MB-231 (breast carcinoma), cells were cultured in DMEM (Invitrogen—Carlsbad, Calif.) and PC-3M (metastatic prostate carcinoma) cells were cultured in RPMI-1640. Peripheral blood mononuclear cells (PBMCs) were voluntarily collected from a healthy laboratory worker by standard sterile phlebotomy techniques and isolated using Vacutainer CPT collection tubes (BD Biosciences—Bedford, Mass.). PBMCs were isolated freshly for each experiment. All DMEM and RPMI-1640 media was supplemented with 10% FBS (Atlanta Biologicals—Lawrenceville, Ga.) and 100 U/mL penicillin and streptomycin (Invitrogen). HUVEC (Human umbilical vein endothelial cells) were cultured in EGM-2 media with supplements provided in the manufacturers BulletKit (Lonza—Walersville, Md.). All cells were maintained at 37° C. and in a 5% CO2 atmosphere.
Growth Inhibition Assays: HeLa, MDA-MB-231, PC-3M, WI-38, and HUVEC cells were plated at 5,000 cells per well in 96 well plates and allowed to attach for 20 hr (8 hr for HeLa). The media was removed and 198 μL of fresh media was added to each well. […] Cell proliferation was measured at t=0 (time at start of treatment) and t=72 hr using MTS AQueous non-radioactive proliferation assay (Promega—Madison, Wis.). […] The absorbance at 490 nm in each well was read with a Spectramax 250 plate reader (Molecular Devices—Sunnyvale, Calif.). […] Data were fit to one site dose response curves in order to obtain specific growth inhibitory concentrations and the relative standard errors of the mean for these concentrations were calculated by the XLfit4 software. Statistical significance (p value) for the selectivity and all subsequent assays was determined with the two tailed homoscedastic Student's t-test. […]

[2] = tested on: topoisomerase II (topo II); assay: Topoisomerase II inhibition assay (topo II-DNA cleavable complexes in treated cells); conditions: HeLa cells, [GI99%], 20 hr, normalized to mitoxantrone
Protocol: In Vitro Topoisomerase Inhibition: HeLa cells were plated at a density of 1.5 million in 35 mm wells and allowed to attach for 20 hr. They were then treated with each compound at the [GI99%] in 10 mL media for 20 hr. In vitro topoisomerase II inhibition was quantified using TopoGEN's Topoisomerase II In vivo Link Kit according to the protocol included with the kit and according to a previously published protocol [24] with slight modifications. In summary, DNA was isolated from sarkosyl lysed cells, layered on a cesium chloride gradient (total volume ˜7 mL), ultra-centrifuged, and then fractionated to 0.5 mL. The fractions were diluted 1:4 v/v in PBS and the fractions containing the genomic DNA were determined by measuring the absorbance at 260 nm for each fraction. The fractions were then loaded into a slot blotting apparatus and pulled through a nitrocellulose membrane by vacuum. The membrane was blocked in 5% w/v milk in 1×TBST (blotto) for 2 hr, incubated in 1:5,000 v/v topoisomerase II (topo II) primary antibody (TopoGEN) in blotto for 1 hr, washed, and incubated in 1:2,000 v/v HRP conjugated anti-rabbit secondary antibody (Jackson—West Grove, Pa.) in blotto for 45 min, washed and developed with SuperSignal West Pico Chemiluminescent Substrate (Pierce—Rockford, Ill.). The data were processed by dividing the intensity of the 2 or 3 most intense topo II immuno-reactive bands by the amount of DNA in the respective fractions. The band intensity was determined by scanning the developed films with a Kodak Image Station 440 CF and measuring the average pixel intensity of an area slightly larger than each band and subtracting the median background pixel intensity of the perimeter of the same area using Kodak MI software. Etoposide (TopoGEN) and mitoxantrone (Sigma—St. Louis, Mo.) are topo II inhibitors used as positive controls. […] Data were standardized to mitoxantrone in each of three independent experiments. […]

HeLa cells [3] = assay: Perinucleolar compartment (PNC) prevalence reduction; conditions: [GI50%] for 72 hr
Protocol: Perinucleolar Compartment (PNC) Reduction: HeLa cells (PNC prevalence ˜85%) were plated 5,000/well in glass bottom 96 well plates and allowed to attach for 8 hr. The cells were then treated with compounds at the respective [GI50%] for 72 hr and [GI99%] for 20 hr for each compound (total media volume was 200 μL/well with 1% DMSO). After treatment cells were immunofluorescently stained as previously described, but with a Texas Red labeled secondary antibody (Jackson) instead of a FITC labeled secondary antibody. PNC prevalence (% of non-apoptotic/non-mitotic cells with 1 or more PNCs) was determined by scoring >200 cells per well with fluorescent microscope (60× objective) and images were acquired with the digital camera and image acquisition software previously mentioned. Scale bar=10 μm. Data are expressed as the average PNC prevalence (% control) of three individual experiments.
The PNC is a unique structural marker that it is only found in malignantly transformed cancer cells, irrespective of tissue origin, and indicates cells that are capable of metastasis. […] Previous studies indicate that the PNC likely conveys a functional metastatic advantage to cancer cells. The PNC prevalence (% of cells with one or more PNC) in human breast cancer positively correlates with the progression of the disease and is always near 100% in distant metastases. […] The PNC prevalence reduction was determined for amonafide and A1-A9 at the respective [GI50%] and [GI99%] doses in HeLa cells, which have a high PNC prevalence of ˜85%.

HeLa cells [4] = assay: Transwell invasion assay; conditions: [GI99%], matrigel, 20 hr
Protocol: Transwell Invasion Assay: HeLa cells were plated at 250,000 per 35 mm well and allowed to attach for 8 hr. The cells were washed with PBS and then treated for 4 hr with the [GI99%] of each compound (or 1% DMSO—vehicle control) in serum free media to decrease the number of invading cells in the beginning of the experiment due to a preliminary lack of drug exposure. The cells were then trypsinized and counted by trypan blue exclusion with a hemacytometer (Sigma—St. Louis, Mo.). Eight micron pore size control well inserts for 12 well plates (BD Biosciences) were coated with 100 μL 1 mg/mL matrigel (Sigma—St. Louis, Mo.) and allowed to solidify at room temperature for 1 hr. The excess matrigel was aspirated and the inserts were gently washed with PBS. The cells were seeded at a density of 300,000 per insert well in a volume of 500 μL serum free media containing a derivative or vehicle. The inserts were then placed in wells containing 700 μL serum free media with the respective compound. After 20 hr the cells on the top of the membranes were gently removed with a cotton swab, the membranes then were fixed in methanol for 1 min, stained in Gills No. 3 Hematoxylin (Sigma—St. Louis, Mo.) for 5 min, rinsed in tap water, and allowed to dry overnight. The membranes were excised, mounted on slides, and the cells were counted under the 40× objective of a bright field microscope. The data are expressed as the average total number of invading cells counted in 20 fields of each membrane, as standardized to the vehicle control, from six experiments.
Effect of derivatives on the malignant phenotype—invasion assay: If A1-A9 have differential targets, DNA binding specificity, or downstream effects they may differentially alter the malignant behavior of cells. Also, anti-cancer compounds can be efficacious against tumors in other ways besides inhibiting growth and inducing death of cancer cells; they can also alter the behavior of malignant cells. Therefore, the ability of A1-A9 and amonafide to alter the invasive behavior of cancer cells in a transwell (also known as Boyden chamber) invasion assay was evaluated, which determines the ability of cells to migrate through a proteinacious gel. This behavior is considered to be representative of cancer cell invasion through the basement membrane of the primary tumor environment. In this assay, treated cells are seeded on to the top of the matrigel-coated porous membrane, allowed to invade through the proteinacious gel onto the underside of the membrane, and then counted.

Chk2 = assay: DNA damage response assay (pThr68-Chk2 / total Chk2 western blot); conditions: HeLa cells, [GI99%], 20 hr, normalized to mitoxantrone
Protocol: DNA Damage Response Assay: 250,000 HeLa cells were plated in 35 mm culture dishes and allowed to attach for 8 hr and were then treated with the [GI99%] of each compound for 20 hr (total media volume was […] with 1% DMSO). After treatment cells were lysed in 150 μL detergent buffer containing 1:100 v/v protease inhibitor cocktail (Sigma—St. Louis, Mo.). Lysates were run on denaturing 12% acrylamide gels and transferred to nitrocellulose membranes. The membranes were blocked in blotto, incubated in anti-pThr68-Chk2 antibody (Cell Signaling—Danvers, Mass.) at 1:500 v/v dilution in blotto overnight 4° C., washed, incubated in HRP conjugated anti-rabbit secondary antibody (Jackson) at 1:5,000 v/v dilution in blotto for 1 hr, and then developed. The membranes were then stripped with a reducing buffer, blocked in blotto, incubated in anti-Chk2 antibody (Biolegend—San Diego, Calif.) at 1:500 v/v dilution in blotto overnight at 4° C., washed, incubated in HRP conjugated anti-mouse secondary antibody (Jackson) at 1:5,000 v/v dilution in blotto for 1 hr, and then developed. Membranes were developed with PicoWest Developing Solution (Pierce) and exposed to film. The intensities of bands were quantified as described in the previous section. The data are expressed as the average ratio of pThr68-Chk2 to total Chk2 as normalized to the mitoxantrone control in each of three independent experiments.
Topoisomerase inhibition by most mechanisms should cause activation of DNA damage response pathways because of the production of single and double strand DNA breaks, as is the case with amonafide. […] Therefore, measuring the DNA damage response at a fixed cytotoxic dose ([GI99%]) will determine the extent that DNA damage contributes to the cytotoxicity of these compounds. […] Activation of Chk2 was determined by measuring the ratio of pThr68-Chk2 to total Chk2 in HeLa cells treated with the [GI99%].

SMILES	[IC99%] (HeLa cells [1])	stabilization of topo II-DNA cleavable complexes [2]	invasive behavior (% invading cells vs vehicle) (HeLa cells [4])	other results
CC[C@@]1(O)C(=O)OCc2c1cc1n(c2=O)Cc2cc3ccccc3nc2-1 [camptothecin]	0.28 µM	did not cause the stabilization of topo II-DNA cleavable complexes	–	–
COCCNc1ccc2c3c(cccc13)C(=O)N(CCN(C)C)C2=O [A4, 6-methoxyethylamino-2-[2-(dimethylamino)ethyl]-1H-benz[de]isoquinoline-1,3(2H)-dione]	–	–	greatly decreases invasion compared to amonafide and control	PNC prevalence reduction at [GI50%] (HeLa cells [3]): able effectively reduce the PNC; also recorded: reduces PNC prevalence to the same extent as amonafide; also recorded: can significantly reduce PNC prevalence
COc1cc([C@@H]2c3cc4c(cc3[C@@H](O[C@@H]3O[C@@H]5CO[C@@H](C)O[C@H]5[C@H](O)[C@H]3O)[C@H]3COC(=O)[C@H]23)OCO4)cc(OC)c1O [etoposide]	9.62 µM	caused formation of abundant drug stabilized topo II-DNA cleavable complexes	–	–
O=C1c2c(O)ccc(O)c2C(=O)c2c(NCCNCCO)ccc(NCCNCCO)c21 [mitoxantrone]	1.01 µM	caused formation of abundant drug stabilized topo II-DNA cleavable complexes	–	–
C=CCNc1ccc2c3c(cccc13)C(=O)N(CCN(C)C)C2=O [A3, 6-allylamino-2-[2-(dimethylamino)ethyl]-1H-benz[de]isoquinoline-1,3(2H)-dione]	–	–	did not significantly alter the invasive behavior of HeLa cells compared to the control	–
CCN(CC)c1ccc2c3c(cccc13)C(=O)N(CCN(C)C)C2=O [A8, 6-diethylamino-2-[2-(dimethylamino)ethyl]-1H-benz[de]isoquinoline-1,3(2H)-dione]	–	–	did not significantly alter the invasive behavior of HeLa cells compared to the control	–
CCCNc1ccc2c3c(cccc13)C(=O)N(CCN(C)C)C2=O [A2, 6-propylamino-2-[2-(dimethylamino)ethyl]-1H-benz[de]isoquinoline-1,3(2H)-dione]	–	–	–	DNA damage response (ratio of pThr68-Chk2 to total Chk2) (Chk2): evoked the strongest DNA damage response
